This is an account of results in patent publication US20200102293A1, “LDHA ACTIVITY INHIBITORS” (ARCTIC PHARMA AS, priority 2017, published 2020).

In one data set the target is LDHA (Homo sapiens, UniProt P00338). Briefly: Coupled diaphorase assay, LDHA. Format: biochemical. The settings on record: 4-7 nM LDHA, 500 μM lactate, 150 μM NAD+, lactate to pyruvate direction. From the text: (§1) The inhibitory properties of the compounds were investigated using a coupled enzyme assay that links the lactate dehydrogenase (LDH) reaction to the production of fluorescent resorufin by diaphorase.
(§2) Human lactate dehydrogenases (LDH) catalyze the reversible interconversion between pyruvate and lactate. LDH is capable of catalyzing both the forward (pyruvate to lactate) and the reverse (lactate to pyruvate) reaction, using either NADH or NAD+ as cofactor. The reaction proceeds in either direction dependent on various factors, such as substrate availability, the presence of necessary cofactors, temperature and pH. Different isoforms (LDH A, B, and C) of the enzyme favor different reaction directions—LDHA prefers the conversion from pyruvate to lactate, whereas LDHB preferentially oxidizes lactate to pyruvate.
(§3) The coupled assay relies on the oxidation of NAD^+ to NADH throughout the conversion of lactate to pyruvate by LDH (isoforms A, B and C). The produced NADH serves as cofactor in the diaphorase reaction, which reduces non-fluorescent resazurin to fluorescent resorufin. Therefore, the assay indirectly monitors the rate of pyruvate production. Although the consumption of NADH can be directly monitored due to the intrinsic fluorescence of the molecule (excitation: 340 nm, emission: 460 nm) there are problems linked to the direct readout method. […] Shifting the assay to longer wavelengths by coupling the LDH reaction to the conversion of resazurin to fluorescent resorufin by diaphorase reduces this compound interference. The assay direction was thus chosen to provide a robust and reliable assay.
(§4) Compounds were tested in duplicates using 2-fold, 3-fold or 4-fold serial dilutions including 11 individual concentrations, starting from 5000 μM to 30 μM. […] The controls allowed for the calculation of the percentage inhibition for each data point. […] Enzyme solution leading to final concentrations of 4-7 nM LDHA or 6 nM LDHB, as well as 0.2 U/mI diaphorase in the reaction well was dispensed into 384-well plates (Greiner bio-one) using a CyBi®-SELMA robotic pipettor. Compound dilutions and the enzyme were incubated for at least 20 min at room temperature. […] The reaction was quenched by the addition of a stop solution (final concentrations: 20 mM EDTA, 400 mM NaCl, 40 mM pyruvate). Fluorescence was read out after 5 min of incubation at an excitation wavelength of 560 nm and an emission wavelength of 590 nm on a Perkin Elmer Victor X plate reader.
(§5) Therefore, an enzyme solution only containing diaphorase was incubated with the compound dilution series.
(§6) Dose response curves were fitted in KaleidaGraph (www.synergy.com) or Dotmatics software package (www.dotmatics.com) using a standard 4-parameter fit (Levenberg-Marquardt fitting procedure), resulting in IC50 values for the test compounds.

The next data set has as its target LDHB (Homo sapiens, UniProt P07195). As to the kind of experiment: Coupled diaphorase assay, LDHB. The data set is classed as biochemical. The settings on record: 6 nM LDHB, 500 μM lactate, 150 μM NAD+, lactate to pyruvate direction.
Description: as §1, §2, §3, §4, §5, §6

The next data set concerns LDH. The settings on record: in vitro; cited from earlier work.
Data set [1] relates to mice with temporal-lobe epilepsy. The settings on record: directly injected into the hippocampus; cited from earlier work.
For data set [2] the following is noted: in vivo; cited from earlier work.
For data set [3], the system named is MIA PaCa-2 human pancreatic cells. The settings on record: MIA PaCa-2 cells; cited from earlier work.

pIC50: −log10 of the molar value.

Chain of LDHB (P07195 whole entry): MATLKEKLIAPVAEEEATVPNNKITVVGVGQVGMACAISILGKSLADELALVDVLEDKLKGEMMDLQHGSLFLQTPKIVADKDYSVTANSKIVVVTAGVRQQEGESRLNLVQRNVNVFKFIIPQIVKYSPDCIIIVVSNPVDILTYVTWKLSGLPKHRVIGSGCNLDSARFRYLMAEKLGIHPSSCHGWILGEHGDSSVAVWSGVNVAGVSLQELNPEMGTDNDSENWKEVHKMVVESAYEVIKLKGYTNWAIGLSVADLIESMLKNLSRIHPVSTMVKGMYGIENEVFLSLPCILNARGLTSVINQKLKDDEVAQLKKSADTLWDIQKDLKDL

On to `CCCCCCCCCC(=O)OC1=C(Sc2ccccc2Cl)C(=O)NC(c2ccsc2)(c2cccc(OC3COC3)n2)C1` (stereo not drawn) [Example 7, 5-((2-chlorophenyl)thio)-6′-(oxetan-3-yloxy)-6-oxo-2-(thiophen-3-yl)-1,2,3,6-tetrahydro-[2,2′-bipyridin]-4-yl decanoate], for which the pIC50 at LDHA is 4.00 to 6.00; at LDHB it was 3.70 to 4.00.
As to `NC(=O)C(=O)O` [Oxamate], in the data set with LDH, the “concentration range inhibiting LDH enzyme activity” value is recorded as “mM range”. In addition, the effect on seizures result in data set [1] was “suppress their seizures”.
In the case of `COCCOC(=O)OC1=C(Sc2ccccc2Cl)C(=O)NC(c2ccsc2)(c2cccc(OCC3CCCC3)n2)C1` (stereo not drawn) [Example 4, 5-((2-chlorophenyl)thio)-6′-(cyclopentylmethoxy)-6-oxo-2-(thiophen-3-yl)-1,2,3,6-tetrahydro-[2,2′-bipyridin]-4-yl (2-methoxyethyl) carbonate], the pIC50 on LDHA and at LDHB was below 3.70 in each case.
As to `CC(C)COC(=O)OC1=C(Sc2ccccc2Cl)C(=O)NC(c2ccc(N3CCOCC3)cc2)(c2ccsc2)C1` (stereo not drawn) [Example 2, 5-((2-chlorophenyl)thio)-2-(4-morpholinophenyl)-6-oxo-2-(thiophen-3-yl)-1,2,3,6-tetrahydropyridin-4-yl isobutyl carbonate], the pIC50 on LDHA was below 3.70.
Regarding `O=C1CC(c2ccc(N3CCOCC3)cc2)(c2ccsc2)NC(=O)C1Sc1ccccc1Cl` (stereo not drawn) [GNE-140], the clearance result in data set [2] is “rapid clearance”. Besides, the “time of continuous LDHA inhibition until cell death” value in data set [3] is reported as at least 2 days.
For `CCOC(=O)OC1=C(Sc2ccccc2Cl)C(=O)NC(c2ccc(Br)cc2)(c2ccsc2)C1` (stereo not drawn) [Example 1, 2-(4-bromophenyl)-5-[(2-chlorophenyl)sulfanyl]-6-oxo-2-(thiophen-3-yl)-1,2,3,6-tetrahydropyridin-4-yl ethyl carbonate], the pIC50 at LDHA was 4.00 to 6.00; on LDHB, below 3.70.
With `CCOC(=O)OC1=C(Sc2ccccc2Cl)C(=O)NC(c2ccsc2)(c2cccc(Br)n2)C1` (stereo not drawn) [Example 3, 6′-bromo-5-((2-chlorophenyl)thio)-6-oxo-2-(thiophen-3-yl)-1,2,3,6-tetrahydro-[2,2′-bipyridin]-4-yl ethyl carbonate], the pIC50 on LDHA and at LDHB was below 3.70 throughout.
With `O=C1CC(c2ccsc2)(c2cccc(OCC3CCCC3)n2)NC(=O)C1Sc1ccccc1Cl` (stereo not drawn) [Example 9, 3-((2-chlorophenyl)thio)-6-(6-(cyclopentylmethoxy)pyridin-2-yl)-6-(thiophen-3-yl)piperidine-2,4-dione, reference compound], the pIC50 on LDHA and at LDHB was 4.00 to 6.00 in each case.
Take `COC(=O)OC1=C(Sc2ccccc2Cl)C(=O)NC(c2ccsc2)(c2ccc(Br)cn2)C1` (stereo not drawn) [Example 6, 5′-bromo-5-((2-chlorophenyl)thio)-6-oxo-2-(thiophen-3-yl)-1,2,3,6-tetrahydro-[2,2′-bipyridin]-4-yl methyl carbonate]: the pIC50 at LDHA and on LDHB was below 3.70 each time.
Take `COC(=O)OC1=C(Sc2ccccc2Cl)C(=O)NC(c2ccc(N3CCOCC3)cc2)(c2ccsc2)C1` (stereo not drawn) [Example 5, 5-((2-chlorophenyl)thio)-2-(4-morpholinophenyl)-6-oxo-2-(thiophen-3-yl)-1,2,3,6-tetrahydropyridin-4-yl methyl carbonate]: the pIC50 on LDHA was 4.00 to 6.00.

A word on the pIC50: it is the IC50 on a negative log10 scale, so that one unit is a factor of ten.
